Earlier results on one compound are cited in patent publication US20030152643A1, “Combination of an alpha-adrenergic antagonist and a nitrogen oxide donor for treating female sexual dysfunctions” (priority 1998, published 2003).

This data set concerns erectile dysfunctions. To be noted: administration in men; Zorgniotti and Lizza 1994.

Consider `N=C(N)NCCC[C@H](N)C(=O)O` [L-arginine], for which the “effect on erectile dysfunctions in men” value is on record as “favorable effect on erectile dysfunctions in certain cases”.
